Results: patent US20030032879A1, “Microbubble formation using ultrasound” (priority 1997, published 2003)

Columns and labels:
dogs = details: cited from earlier work
[1] = Acoustic backscatter (gray scale intensity) after injection into water beaker at 37° C.; details: 0.2 mL neat liquid (1111 micromoles) into 1000 mL water at 37° C.
Protocol: The criticality that the low boiling liquid be present as a finely divided dispersion rather than as a neat liquid was determined by measuring the acoustic backscatter of the two states.
Two solutions were prepared to simulate the administration to an organism of either a colloidal dispersion of a low boiling liquid or the liquid neat. These were scanned at 5.0 MHz with a Hewlett Packard Model 77020 ultrasound scanner and the images obtained recorded on Sony ES VHS tape. The analog images from the tape were then converted to a digital form using the software package Global Lab Image Software (Data Translation, Marlboro, Mass.). The gray scale intensity within a 4900 pixel (70×70 pixel-sized) region-of-interest was then measured before and after the injection of the colloidal dispersion of Example 19 and the same quantity of neat dodecafluoropentane into a 1000 mL water beaker equilibrated at 37° C.
The measurements were performed on a gray scale of 2 to 254. […] The injection of 0.1 mL of this emulsion produced a change of intensity to 236 five seconds post-injection and 182 fifty-two seconds post-injection.
The same experiment was performed with a 0.2 mL injection of neat dodecafluoropentane. This corresponds to 1111 micromoles of dodecafluoropentane, over 300-times the quantity in the experiment above. […]

[2] = Interfacial tension against dodecafluoropentane, Kruss Drop Volume Tensiometer; format: physicochemical; details: Pluronic P-123 / F-127 mixtures, 4° C.
[3] = 760 mm Hg and 15° C., Gas Data Book; cited from earlier work
[4] = Calculated change in dispersion size from liquid and gas densities; format: physicochemical; details: calculated from cubic root of volume
Protocol: One can also calculate the expected change in dispersion size if one knows the relative densities of the dispersed liquid as a gas and liquid. For example, the Gas Data Book, by W Braker and A Mossman, Matheson, contains such data. Examining octafluorocyclobutane, one finds that 1 L of the liquid yields 188 L of gas at a pressure of 760 mm Hg and 15° C. Since the volume of a sphere is related to the diameter of a sphere by the cubic root of the volume, the phase transition for an octafluorobutane emulsion particle will cause a 5.7-fold increase in diameter.

CCOCC [ether]
toxicity (dogs; Injections of 20 mL): fatal | contrast effect on Doppler signal (dogs; intraarterial, detected five cm below injection site): greatest contrast effect

FC(F)(F)C(F)(F)C(F)(F)C(F)(F)C(F)(F)F [dodecafluoropentane]
image intensity (gray scale of 2 to 254) ([1]; fifty-two seconds post-injection): 5.0 | image intensity (gray scale of 2 to 254) ([1]; five seconds post-injection): 7.7 | HLB from graphed interfacial tension data [2]: about 14

FC1(F)C(F)(F)C(F)(F)C1(F)F [octafluorocyclobutane]
gas volume from 1 L of the liquid [3]: 188 L | increase in diameter of emulsion particle on phase transition [4]: 5.7 fold
